# Assay: xn = mol fraction of the nth substance listed
# Details: 101 kPa
structure (smiles),measurement,setting,value
CCCC[n+]1ccn(C)c1.CS(=O)(=O)[O-] + O,viscosity,"313.15 K, x2 = 0.5596",26.8 mPa·s
same,viscosity,"313.15 K, x2 = 0.6542",17.83 mPa·s
same,viscosity,"313.15 K, x2 = 0.7015",14.43 mPa·s
same,electrical conductivity,"313.15 K, x2 = 0.704",1.07 S/m
same,viscosity,"313.15 K, x2 = 0.7495",11.11 mPa·s
same,electrical conductivity,"313.15 K, x2 = 0.785",1.89 S/m
same,electrical conductivity,"313.15 K, x2 = 0.796",1.98 S/m
same,viscosity,"313.15 K, x2 = 0.8016",8.17 mPa·s
same,viscosity,"313.15 K, x2 = 0.8521",5.48 mPa·s
same,electrical conductivity,"313.15 K, x2 = 0.861",3.55 S/m
same,viscosity,"313.15 K, x2 = 0.9254",2.67 mPa·s
same,electrical conductivity,"313.15 K, x2 = 0.929",5.27 S/m
same,viscosity,"313.15 K, x2 = 0.9503",1.854 mPa·s
same,electrical conductivity,"313.15 K, x2 = 0.951",5.76 S/m
same,electrical conductivity,"313.15 K, x2 = 0.968",5.4 S/m
same,viscosity,"313.15 K, x2 = 0.975",1.148 mPa·s
same,electrical conductivity,"314.15 K, x1 = 0.004",1.61 S/m
same,electrical conductivity,"314.15 K, x1 = 0.008",2.86 S/m
same,electrical conductivity,"314.15 K, x1 = 0.019",4.58 S/m
same,electrical conductivity,"314.15 K, x2 = 0.704",1.1 S/m
same,electrical conductivity,"314.15 K, x2 = 0.785",1.96 S/m
same,electrical conductivity,"314.15 K, x2 = 0.796",2.04 S/m
same,electrical conductivity,"314.15 K, x2 = 0.861",3.71 S/m
same,electrical conductivity,"314.15 K, x2 = 0.929",5.42 S/m
same,electrical conductivity,"314.15 K, x2 = 0.951",5.97 S/m
same,electrical conductivity,"314.15 K, x2 = 0.968",5.53 S/m
same,electrical conductivity,"315.15 K, x1 = 0.004",1.64 S/m
same,electrical conductivity,"315.15 K, x1 = 0.008",2.91 S/m
same,electrical conductivity,"315.15 K, x1 = 0.019",4.65 S/m
same,electrical conductivity,"315.15 K, x2 = 0.704",1.14 S/m
same,electrical conductivity,"315.15 K, x2 = 0.785",2.02 S/m
same,electrical conductivity,"315.15 K, x2 = 0.796",2.11 S/m
same,electrical conductivity,"315.15 K, x2 = 0.861",3.75 S/m
same,electrical conductivity,"315.15 K, x2 = 0.892",4.58 S/m
same,electrical conductivity,"315.15 K, x2 = 0.929",5.54 S/m
same,electrical conductivity,"315.15 K, x2 = 0.951",6.11 S/m
same,electrical conductivity,"316.15 K, x1 = 0.004",1.67 S/m
same,electrical conductivity,"316.15 K, x1 = 0.008",2.97 S/m
same,electrical conductivity,"316.15 K, x1 = 0.019",4.73 S/m
same,electrical conductivity,"316.15 K, x2 = 0.704",1.18 S/m
same,electrical conductivity,"316.15 K, x2 = 0.796",2.17 S/m
same,electrical conductivity,"316.15 K, x2 = 0.861",3.84 S/m
same,electrical conductivity,"316.15 K, x2 = 0.892",4.75 S/m
same,electrical conductivity,"316.15 K, x2 = 0.929",5.63 S/m
same,electrical conductivity,"316.15 K, x2 = 0.968",5.71 S/m
same,electrical conductivity,"317.15 K, x1 = 0.008",3 S/m
same,electrical conductivity,"317.15 K, x1 = 0.019",4.82 S/m
same,electrical conductivity,"317.15 K, x2 = 0.704",1.22 S/m
same,electrical conductivity,"317.15 K, x2 = 0.785",2.1 S/m
same,electrical conductivity,"317.15 K, x2 = 0.796",2.22 S/m
same,electrical conductivity,"317.15 K, x2 = 0.861",3.94 S/m
same,electrical conductivity,"317.15 K, x2 = 0.892",4.86 S/m
same,electrical conductivity,"317.15 K, x2 = 0.929",5.78 S/m
same,electrical conductivity,"318.15 K, x1 = 0.004",1.72 S/m
same,electrical conductivity,"318.15 K, x1 = 0.008",3.06 S/m
same,electrical conductivity,"318.15 K, x1 = 0.019",4.92 S/m
same,electrical conductivity,"318.15 K, x2 = 0.704",1.27 S/m
same,electrical conductivity,"318.15 K, x2 = 0.785",2.15 S/m
same,electrical conductivity,"318.15 K, x2 = 0.796",2.29 S/m
same,electrical conductivity,"318.15 K, x2 = 0.861",4.05 S/m
same,electrical conductivity,"318.15 K, x2 = 0.892",4.99 S/m
same,electrical conductivity,"318.15 K, x2 = 0.951",6.37 S/m
same,electrical conductivity,"318.15 K, x2 = 0.968",5.94 S/m
same,electrical conductivity,"319.15 K, x1 = 0.004",1.76 S/m
same,electrical conductivity,"319.15 K, x1 = 0.008",3.11 S/m
same,electrical conductivity,"319.15 K, x1 = 0.019",5.07 S/m
same,electrical conductivity,"319.15 K, x2 = 0.785",2.21 S/m
same,electrical conductivity,"319.15 K, x2 = 0.796",2.35 S/m
same,electrical conductivity,"319.15 K, x2 = 0.892",5.12 S/m
same,electrical conductivity,"319.15 K, x2 = 0.929",6.06 S/m
same,electrical conductivity,"319.15 K, x2 = 0.951",6.73 S/m
same,electrical conductivity,"320.15 K, x1 = 0.008",3.17 S/m
same,electrical conductivity,"320.15 K, x2 = 0.785",2.28 S/m
same,electrical conductivity,"320.15 K, x2 = 0.796",2.4 S/m
same,electrical conductivity,"320.15 K, x2 = 0.861",4.25 S/m
same,electrical conductivity,"320.15 K, x2 = 0.929",6.2 S/m
same,electrical conductivity,"320.15 K, x2 = 0.951",6.7 S/m
same,electrical conductivity,"321.15 K, x1 = 0.004",1.82 S/m
same,electrical conductivity,"321.15 K, x1 = 0.008",3.21 S/m
same,electrical conductivity,"321.15 K, x1 = 0.019",5.2 S/m
same,electrical conductivity,"321.15 K, x2 = 0.704",1.39 S/m
same,electrical conductivity,"321.15 K, x2 = 0.785",2.36 S/m
same,electrical conductivity,"321.15 K, x2 = 0.861",4.38 S/m
same,electrical conductivity,"321.15 K, x2 = 0.892",5.35 S/m
same,electrical conductivity,"321.15 K, x2 = 0.929",6.32 S/m
same,electrical conductivity,"321.15 K, x2 = 0.951",6.78 S/m
same,electrical conductivity,"322.15 K, x1 = 0.004",1.85 S/m
same,electrical conductivity,"322.15 K, x1 = 0.008",3.28 S/m
same,electrical conductivity,"322.15 K, x1 = 0.019",5.28 S/m
same,electrical conductivity,"322.15 K, x2 = 0.785",2.44 S/m
same,electrical conductivity,"322.15 K, x2 = 0.861",4.47 S/m
same,electrical conductivity,"322.15 K, x2 = 0.951",6.94 S/m
same,electrical conductivity,"322.15 K, x2 = 0.968",6.41 S/m
same,electrical conductivity,"323.15 K, x1 = 0.004",1.88 S/m
same,electrical conductivity,"323.15 K, x1 = 0.008",3.33 S/m
same,electrical conductivity,"323.15 K, x1 = 0.019",5.4 S/m
same,viscosity,"323.15 K, x2 = 0.5596",19 mPa·s
same,viscosity,"323.15 K, x2 = 0.6542",12.84 mPa·s
same,viscosity,"323.15 K, x2 = 0.7015",10.57 mPa·s
same,electrical conductivity,"323.15 K, x2 = 0.704",1.49 S/m
same,viscosity,"323.15 K, x2 = 0.7495",8.22 mPa·s
same,electrical conductivity,"323.15 K, x2 = 0.796",2.62 S/m
same,viscosity,"323.15 K, x2 = 0.8521",4.18 mPa·s
same,electrical conductivity,"323.15 K, x2 = 0.861",4.6 S/m
same,electrical conductivity,"323.15 K, x2 = 0.892",5.62 S/m
same,viscosity,"323.15 K, x2 = 0.9004",2.87 mPa·s
same,viscosity,"323.15 K, x2 = 0.9254",2.13 mPa·s
same,electrical conductivity,"323.15 K, x2 = 0.929",6.51 S/m
same,electrical conductivity,"323.15 K, x2 = 0.968",6.56 S/m
same,viscosity,"323.15 K, x2 = 0.975",0.939 mPa·s
same,electrical conductivity,"324.15 K, x2 = 0.704",1.54 S/m
same,electrical conductivity,"324.15 K, x2 = 0.785",2.57 S/m
same,electrical conductivity,"324.15 K, x2 = 0.796",2.68 S/m
same,electrical conductivity,"324.15 K, x2 = 0.861",4.7 S/m
same,electrical conductivity,"324.15 K, x2 = 0.929",6.65 S/m
same,electrical conductivity,"324.15 K, x2 = 0.951",7.19 S/m
same,electrical conductivity,"324.15 K, x2 = 0.968",6.6 S/m
same,electrical conductivity,"325.15 K, x1 = 0.004",1.94 S/m
same,electrical conductivity,"325.15 K, x2 = 0.785",2.63 S/m
same,electrical conductivity,"325.15 K, x2 = 0.861",4.82 S/m
same,electrical conductivity,"325.15 K, x2 = 0.892",5.85 S/m
same,electrical conductivity,"325.15 K, x2 = 0.951",7.31 S/m
same,electrical conductivity,"325.15 K, x2 = 0.968",6.74 S/m
same,electrical conductivity,"326.15 K, x1 = 0.008",3.43 S/m
same,electrical conductivity,"326.15 K, x1 = 0.019",5.63 S/m
same,electrical conductivity,"326.15 K, x2 = 0.704",1.63 S/m
same,electrical conductivity,"326.15 K, x2 = 0.785",2.7 S/m
same,electrical conductivity,"326.15 K, x2 = 0.796",2.83 S/m
same,electrical conductivity,"326.15 K, x2 = 0.861",4.9 S/m
same,electrical conductivity,"326.15 K, x2 = 0.892",5.98 S/m
same,electrical conductivity,"327.15 K, x1 = 0.004",1.99 S/m
same,electrical conductivity,"327.15 K, x1 = 0.008",3.54 S/m
same,electrical conductivity,"327.15 K, x1 = 0.019",5.55 S/m
same,electrical conductivity,"327.15 K, x2 = 0.785",2.75 S/m
same,electrical conductivity,"327.15 K, x2 = 0.796",2.9 S/m
same,electrical conductivity,"327.15 K, x2 = 0.892",6.11 S/m
same,electrical conductivity,"327.15 K, x2 = 0.968",6.87 S/m
same,electrical conductivity,"328.15 K, x1 = 0.004",2.01 S/m
same,electrical conductivity,"328.15 K, x1 = 0.008",3.6 S/m
same,electrical conductivity,"328.15 K, x2 = 0.704",1.74 S/m
same,electrical conductivity,"328.15 K, x2 = 0.785",2.83 S/m
